Experimental data from US11773127B2, “Compounds and methods for treating bacterial infections” (Washington University, priority 2017, dated 2023).
Read-outs that look alike come from different tables or passages of the source.

Molecular target: T1, FmlHLD (Escherichia coli, UniProt P77588)
T1 construct: 6xHis (C); made in house; host or cells: E. coli C600, periplasm, pTRC99a
Experiment: biochemical
Format: binding, E. coli
Settings: for PI100 (percent inhibition): galactoside at 100 μM
In short: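 Sialidase-treated bovine submaxillary mucin (ds-BSM) coated wells, BSA-blocked, then biotinylated FmlH^LD (20 μg/mL) with or without compound for 1 h at room temperature. Bound lectin detected by streptavidin-HRP/TMB, A450.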

[1] = read-out: PI100 (percent inhibition), galactoside at 100 μM, mean with standard error of the mean
[2] = IC50, inhibition of FmlHLD binding to ds-BSM
[3] = read-out: % Inhibition at [μM] [0.1], compound at 0.1 μM (100 nM), inhibition of FmlHLD binding to ds-BSM
[4] = read-out: % Inhibition at [μM] [1], compound at 1 μM, inhibition of FmlHLD binding to ds-BSM
[5] = read-out: PI (0.1) (average percent inhibition), compound at 100 nM, Table 4
[6] = read-out: PI(1) (average percent inhibition), compound at 1 μM, Table 4
[7] = read-out: % Inhibition at [μM] [10], compound at 10 μM, inhibition of FmlHLD binding to ds-BSM
[8] = read-out: % Inhibition at [μM] [100], compound at 100 μM, inhibition of FmlHLD binding to ds-BSM
[9] = mean with standard error of the mean, 100 µM
[10] = read-out: PI1 (percent inhibition), galactoside at 1 μM, mean with standard error of the mean
[11] = read-out: PI10 (percent inhibition), galactoside at 10 μM, mean with standard error of the mean
[12] = IC50 (μM), Table 6, sulfonamides 3078-3090

T1 sequence (P77588 25-182): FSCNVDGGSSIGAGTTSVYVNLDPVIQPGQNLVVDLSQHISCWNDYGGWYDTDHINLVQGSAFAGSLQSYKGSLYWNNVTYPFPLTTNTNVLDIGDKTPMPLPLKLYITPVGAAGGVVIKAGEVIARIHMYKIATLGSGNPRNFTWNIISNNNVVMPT

N#Cc1ccccc1O[C@H]1O[C@H](CO)[C@H](O)[C@H](O)[C@H]1O [Compound 3α, 2-cyanophenyl α/β-D-galactopyranoside]
inhibition at 100 µM [1]: 17.8 ± 6.3%

CC(=O)N[C@H]1[C@H](Oc2ccccc2-c2cccc(NS(C)(=O)=O)c2)O[C@H](CO)[C@H](O)[C@@H]1O [AM2038, N-((2S,3R,4R,5R,6R)-4,5-dihydroxy-6-(hydroxymethyl)-2-((3′-(methylsulfonamido)-[1,1′-biphenyl]-2-yl)oxy)tetrahydro-2H-pyran-3-yl)acetamide]
potency relative to matched pair Gal/GalNAc derivative (2038 vs 2043, 2050 vs 3029): about 5 fold | IC50 (IC50 (μM), Table 5, Gal and GalNAc inhibition of FmlH): 0.23 µM | IC50 [2]: 0.271 µM | greater potency than 29β-NAc (IC50 ratio): 3 fold | inhibition at 0.1 µM [3]: 16.5% | inhibition at 1 µM [4]: 81.4% | inhibition at 0.1 µM [5]: 16.5% | inhibition at 1 µM [6]: 81.4%

COc1ccc(C(=O)O)cc1-c1ccccc1O[C@@H]1O[C@H](CO)[C@H](O)[C@H](O)[C@H]1NC(C)=O [AM2051]
inhibition at 0.1 µM [3]: 0% | inhibition at 1 µM [4]: 15.9%

O=c1ccc2nc3ccc(O[C@@H]4O[C@H](CO)[C@H](O)[C@H](O)[C@H]4O)cc3oc-2c1 [Resorufin Gal, reference compound]
inhibition at 10 µM [7]: 24% | inhibition at 100 µM [8]: 80.4%

CC(=O)N[C@H]1[C@H](Oc2ccc3ccncc3c2)O[C@H](CO)[C@H](O)[C@@H]1O [AM2002, N-((2S,3R,4R,5R,6R)-4,5-dihydroxy-6-(hydroxymethyl)-2-(isoquinolin-7-yloxy)tetrahydro-2H-pyran-3-yl)acetamide]
inhibition at 1 µM [4]: 20.2% | inhibition at 1 µM [6]: 20.2%

OC[C@H]1O[C@H](Oc2cccc3ccccc23)[C@H](O)[C@@H](O)[C@H]1O [Compound 18α, 1-naphthalenyl α/β-D-galactopyranoside]
inhibition at 100 µM [1]: 28.1 ± 3.4%

Cc1ccccc1O[C@H]1O[C@H](CO)[C@H](O)[C@H](O)[C@H]1O [Compound 135a]
inhibition at 100 µM [8]: 30%

Cc1cc(=O)oc2cc(O[C@@H]3O[C@H](CO)[C@H](O)[C@H](O)[C@H]3O)ccc12 [Compound 12β]
PI100 (percent inhibition) [9]: 85.3 ± 0.7% | inhibition at 1 µM [10]: 8.7 ± 3.1% | inhibition at 10 µM [11]: 19.7 ± 4.2% | inhibition at 100 µM [1]: 85%

CC(C)S[C@@H]1O[C@H](CO)[C@H](O)[C@H](O)[C@H]1O [IPTG, isopropyl β-thiogalactoside, reference compound]
inhibition at 100 µM [8]: 23.7% | inhibition of FmlHLD binding to ds-BSM, in words (soluble compound at 100 μM (0.1 mM)): minor inhibitory activity

CC(=O)N[C@@H]1[C@H](Oc2cccc(C(=O)OCc3ccccc3)c2-c2cccc(NS(C)(=O)=O)c2)OC(CO)[C@H](O)[C@@H]1O (stereo partly drawn) [Compound 3081, Benzyl 6-(((2S,3S,4R,5R)-3-acetamido-4,5-dihydroxy-6-(hydroxymethyl)tetrahydro-2H-pyran-2-yl)oxy)-3′-(methylsulfonamido)-[1,1′-biphenyl]-2-carboxylate]
IC50 [12]: 0.18 µM

OC[C@H]1O[C@H](Oc2ccccc2-c2ccccc2)[C@H](O)[C@@H](O)[C@H]1O [Compound 28α, [1,1′-biphenyl]-2-yl α/β-D-galactopyranoside]
inhibition at 100 µM [1]: 19.2 ± 3%

CC(=O)N[C@H]1[C@H](Oc2cccc(F)c2-c2cccc(NS(C)(=O)=O)c2)O[C@H](CO)[C@H](O)[C@@H]1O [AM2109]
IC50 [2]: 0.151 µM

Cc1ccc(O[C@@H]2O[C@H](CO)[C@H](O)[C@H](O)[C@H]2O)cc1 [Compound 8β, 4-methylphenyl β-D-galactopyranoside]
PI100 (percent inhibition) [9]: 85.8 ± 0.7% | inhibition at 1 µM [10]: 4.6 ± 7.9% | inhibition at 10 µM [11]: 16.5 ± 3.3% | inhibition at 100 µM [1]: 86%

O=[N+]([O-])c1ccc(O[C@@H]2O[C@H](CO)[C@H](O)[C@H](O)[C@H]2O)cc1 [p-Nitrophenyl Gal, reference compound]
inhibition at 10 µM [7]: 13.7% | inhibition at 100 µM [8]: 78.1%

O=c1ccc2nc3ccc(O[C@@H]4O[C@H](CO)[C@H](O)[C@H](O)[C@H]4O)cc3oc-2c1 [Compound 15β, Resorufin galactoside]
PI100 (percent inhibition) [9]: 80.4 ± 6.6% | inhibition at 10 µM [11]: 24 ± 3.2% | inhibition at 100 µM [1]: 80%

CNC(=O)c1cccc(-c2ccccc2O[C@@H]2O[C@H](CO)[C@H](O)[C@H](O)[C@H]2O)c1 [AM2042, N-methyl-2′-(((2S,3R,4S,5R,6R)-3,4,5-trihydroxy-6-(hydroxymethyl)tetrahydro-2H-pyran-2-yl)oxy)-[1,1′-biphenyl]-3-carboxamide]
inhibition at 0.1 µM [3]: 0% | inhibition at 1 µM [4]: 16.6% | inhibition at 0.1 µM [5]: 0% | inhibition at 1 µM [6]: 16.6%

OC[C@H]1O[C@@H](Oc2ccc3ccccc3c2)[C@H](O)[C@@H](O)[C@H]1O [2-napthyl Gal, reference compound]
inhibition at 10 µM [7]: 14.6% | inhibition at 100 µM [8]: 78.8%

CC(=O)N[C@H]1[C@H](Oc2ccc3cccnc3c2)O[C@H](CO)[C@H](O)[C@@H]1O [AM1180, N-((2S,3R,4R,5R,6R)-4,5-dihydroxy-6-(hydroxymethyl)-2-(quinolin-7-yloxy)tetrahydro-2H-pyran-3-yl)acetamide]
inhibition at 1 µM [4]: 15.4% | inhibition at 1 µM [6]: 15.4%

CC(=O)N[C@H]1[C@H](Oc2ccc([N+](=O)[O-])cc2)O[C@H](CO)[C@@H](O)[C@@H]1O[C@@H]1O[C@H](CO)[C@H](O)[C@H](O)[C@H]1O [Compound 34, p-nitrophenyl Gal-β1-3-GlcNAc, reference compound]
PI100 (percent inhibition) (mean with standard error of the mean): −3.6 ± 1.0%

CC(=O)N[C@H]1[C@H](Oc2ccc3ccccc3c2-c2cccc(NS(C)(=O)=O)c2)O[C@H](CO)[C@H](O)[C@@H]1O [Compound 3085, N-((2S,3R,4R,5R,6R)-4,5-dihydroxy-6-(hydroxymethyl)-2-((1-(3-(methylsulfonamido)phenyl)naphthalen-2-yl)oxy)tetrahydro-2H-pyran-3-yl)acetamide]
IC50 [12]: 0.18 µM

CC(=O)N[C@H]1[C@H](Oc2cccc(C#N)c2-c2cccc(NS(C)(=O)=O)c2)O[C@H](CO)[C@H](O)[C@@H]1O [AM2107]
IC50 [2]: 0.109 µM

OC[C@H]1O[C@@H](Oc2ccc3ccccc3c2)[C@H](O)[C@@H](O)[C@H]1O [Compound 19β]
PI100 (percent inhibition) [9]: 78.8 ± 2.1% | inhibition at 10 µM [11]: 14.6 ± 3.1% | inhibition at 100 µM [1]: 79%

COC(=O)c1cccc(-c2ccccc2O[C@H]2O[C@H](CO)[C@H](O)[C@H](O)[C@H]2O)c1 [Compound 116e]
inhibition at 100 µM [8]: 13.1%

CC(=O)N[C@H]1[C@H](Oc2ccccc2-c2cccc(NS(=O)(=O)C(F)(F)F)c2)O[C@H](CO)[C@H](O)[C@@H]1O [AM2112]
IC50 [2]: 2.43 µM

COC(=O)c1cccc(-c2ccccc2O[C@@H]2O[C@H](CO)[C@H](O)[C@H](O)[C@H]2O)c1 [Compound 116f]
inhibition at 1 µM [4]: 3.7% | inhibition at 10 µM [7]: 22.4% | inhibition at 100 µM [8]: 86.6%

OC[C@H]1O[C@@H](Oc2ccccc2-c2ccccc2)[C@H](O)[C@@H](O)[C@H]1O [Compound 113f2]
inhibition at 1 µM [4]: 8.1% | inhibition at 10 µM [7]: 31% | inhibition at 100 µM [8]: 91.1%

CC(=O)N[C@H]1[C@H](Oc2ccc([N+](=O)[O-])cc2)O[C@H](CO)[C@@H](O)[C@@H]1O[C@@H]1O[C@H](CO)[C@H](O)[C@H](O)[C@H]1O [Gal-b1-3-PNPGlcNAc, reference compound]
% Inhibition at [μM] [100] (compound at 100 μM, inhibition of FmlHLD binding to ds-BSM): −3.60%
